Experiments:
Assay in all cases: Weeding effect in post-emergence stage
Assay type in all cases: in vivo
Conditions in all cases: fresh weight control rate level
Echinochloa crusgalli = test system: Echinochloa crusgalli
Summary of the method: (§1)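 Seeds are sown in soil-filled pots under 0.5-2 cm soil and grown 2 weeks in greenhouse. Plants at 2-3 leaves are sprayed with compound (acetone, Tween 80, 1.5 liter/ha methyl oleate EC, water) at 7.5 to 500 g/ha. Damage is rated 3 weeks later, averaging three repeats.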

Digitaria sanguinalis = test system: Digitaria sanguinalis
Summary of the method: as §1

Abutilon theophrasti = test system: Abutilon theophrasti
Summary of the method: as §1

Setaria viridis = test system: Setaria viridis
Summary of the method: as §1

Eleusine indica = test system: Eleusine indica
Summary of the method: as §1

Alopecurus japonicus = test system: Alopecurus japonicus
Summary of the method: as §1

SMILES | Weeding effect in post-emergence stage, Echinochloa crusgalli (level) (Echinochloa crusgalli; Dose 15 g/ha) | Weeding effect in post-emergence stage, Digitaria sanguinalis (level) (Digitaria sanguinalis; Dose 15 g/ha) | Weeding effect in post-emergence stage, Abutilon theophrasti (level) (Abutilon theophrasti; Dose 15 g/ha) | Weeding effect in post-emergence stage, Setaria viridis (level) (Setaria viridis; Dose 15 g/ha) | Weeding effect in post-emergence stage, Eleusine indica (level) (Eleusine indica; Dose 15 g/ha) | Weeding effect in post-emergence stage, Alopecurus japonicus (level) (Alopecurus japonicus; Dose 15 g/ha) | Weeding effect in post-emergence stage, Echinochloa crusgalli (level) (Echinochloa crusgalli; Dose 30 g/ha) | Weeding effect in post-emergence stage, Digitaria sanguinalis (level) (Digitaria sanguinalis; Dose 30 g/ha) | Weeding effect in post-emergence stage, Abutilon theophrasti (level) (Abutilon theophrasti; Dose 30 g/ha) | Weeding effect in post-emergence stage, Setaria viridis (level) (Setaria viridis; Dose 30 g/ha) | Weeding effect in post-emergence stage, Eleusine indica (level) (Eleusine indica; Dose 30 g/ha) | Weeding effect in post-emergence stage, Alopecurus japonicus (level) (Alopecurus japonicus; Dose 30 g/ha)
CCCSC(=O)[C@@H](C)O/N=C/c1cc(-n2c(=O)cc(C(F)(F)F)n(C)c2=O)c(F)cc1Cl [399(R)] | 5 (Level 5: growth control rate is above 85%) | 5 (Level 5: growth control rate is above 85%) | 5 (Level 5: growth control rate is above 85%) | 5 (Level 5: growth control rate is above 85%) | 5 (Level 5: growth control rate is above 85%) | 5 (Level 5: growth control rate is above 85%) |  |  |  |  |  | 
CC(C)SC(=O)[C@@H](C)O/N=C/c1cc(-n2c(=O)cc(C(F)(F)F)n(C)c2=O)c(F)cc1Cl [400(R)] | 5 (Level 5: growth control rate is above 85%) | 5 (Level 5: growth control rate is above 85%) | 5 (Level 5: growth control rate is above 85%) | 5 (Level 5: growth control rate is above 85%) | 5 (Level 5: growth control rate is above 85%) | 5 (Level 5: growth control rate is above 85%) |  |  |  |  |  | 
COC(=O)CSC(=O)[C@@H](C)O/N=C/c1cc(-n2c(=O)cc(C(F)(F)F)n(C)c2=O)c(F)cc1Cl [406(R)] | 5 (Level 5: growth control rate is above 85%) | 5 (Level 5: growth control rate is above 85%) | 5 (Level 5: growth control rate is above 85%) | 5 (Level 5: growth control rate is above 85%) | 5 (Level 5: growth control rate is above 85%) | 5 (Level 5: growth control rate is above 85%) |  |  |  |  |  | 
C[C@@H](O/N=C/c1cc(-n2c(=O)cc(C(F)(F)F)n(C)c2=O)c(F)cc1Cl)C(=O)SCc1ccccc1 [409(R)] |  |  |  |  |  |  | 5 (Level 5: growth control rate is above 85%) | 5 (Level 5: growth control rate is above 85%) | 5 (Level 5: growth control rate is above 85%) | 5 (Level 5: growth control rate is above 85%) | 5 (Level 5: growth control rate is above 85%) | 5 (Level 5: growth control rate is above 85%)
COC(=O)CCNC(=O)[C@@H](C)O/N=C/c1cc(-n2c(=O)cc(C(F)(F)F)n(C)c2=O)c(F)cc1Cl [416(R)] | 5 (Level 5: growth control rate is above 85%) | 5 (Level 5: growth control rate is above 85%) | 5 (Level 5: growth control rate is above 85%) | 5 (Level 5: growth control rate is above 85%) | 5 (Level 5: growth control rate is above 85%) | 5 (Level 5: growth control rate is above 85%) |  |  |  |  |  | 

Source: patent US20230111310A1, “CARBOXYLIC ACID DERIVATIVE-SUBSTITUTED IMINO ARYL COMPOUND, PREPARATION METHOD THEREFOR, HERBICIDAL COMPOSITION AND USE THEREOF” (Qingdao Kingagroot Chemical Compound Co., Ltd., priority 2020, published 2023)
